From US6451325B1, “Adjuvant formulation comprising a submicron oil droplet emulsion” (Chiron Corporation, priority 1989, dated 2002)

Tested on: influenza HA (Parke-Davis FLUOGEN)
Parameters: species or system Goats
Conditions: in vivo

Structure (SMILES): CCCCCCCCCCCCCCCC(=O)OC[C@H](COP(=O)(O)OCCNC(=O)[C@H](C)NC(=O)CC[C@@H](NC(=O)[C@H](C)NC(=O)[C@@H](C)O[C@H]1[C@H](O)[C@@H](CO)OC(O)[C@@H]1NC(C)=O)C(N)=O)OC(=O)CCCCCCCCCCCCCCC (stereo partly drawn) [MTP-PE in PBS, N-acetylmuramyl-L-alanyl-D-isoglutaminyl-L-alanine-2-[1,2-dipalmitoyl-sn-glycero-3-(hydroxyphosphoryloxy)]ethylamide]
- stimulation of antibody titer after one immunization: no stimulation of antibody titer
